According to patent US10017501B2, “Benzimidazole derivatives as bromodomain inhibitors” (Gilead Sciences, Inc., priority 2013, dated 2018):

What follows are compounds tested on MT-4 cells (assay: MT-4 proliferation assay). Conditions: Homo sapiens, MT4, 120 h, read-out: MT4 Assay (EC50, nM).
Assay type: cell-based, human
Procedure: MT-4 Proliferation Assay:
Compounds were tested in a standardized high-throughput 384-well assay format. Each compound was serially diluted 3-fold in 100% DMSO in polypropylene 384-well plates using a Biomek FX Workstation, and 0.4 μL compound added to an assay plate containing 40 μL RPMI media. Compounds were arranged in a horizontal pattern, with 10 concentrations per compound, and 8 compounds added per plate. Due to low DMSO tolerability, the final DMSO concentration never exceeded 0.5% (v/v). Each assay plate contained 10 μM Puromycin and 0.5% DMSO in RPMI-1640 as positive and negative controls respectively. MT-4 cells (HTLV-1 transformed, human T lymphoblastoid cells, NIH Aids Reagent program) were added in volumes of 35 μL per well and 2,000 cells per well using a Biotek uFlow Workstation (Biotek, Winooski, Vt.), and the plates subsequently incubated for 5 days at 37° C. in an incubator set at 5% CO2 and 90% humidity.
After 5 days, 22 μL Cell Titer Glo (Promega) was added to the assay plates with a Biotek uFlow Workstation. Plates were subsequently placed on a Perkin Elmer Envision Plate Reader for 5 minutes before the luminescence signal was read.

| Compound | EC50 |
| --- | --- |
| Cc1noc(C)c1-c1cc(S(=O)(=O)NC2CCCC2)c2nc([S+](C)[O-])[nH]c2c1 (stereo not shown) [Compound 1020-5, N-Cyclopentyl-6-(3,5-dimethylisoxazol-4-yl)-2-(methylsulfinyl)-1H-benzo[d]imidazole-4-sulfonamide] | 329 nM |

Same assay, conditions: Homo sapiens, MT4, 120 h; Table 1; 5 days, Cell Titer Glo; read-out: MT4 Assay (EC50)

| Compound | EC50 |
| --- | --- |
| Cc1noc(C)c1-c1cc(-c2cccnc2-c2ccccc2)c2nc(C3CC3)[nH]c2c1 [Compound 1020-19, 4-(2-Cyclopropyl-4-(2-phenylpyridin-3-yl)-1H-benzo[d]imidazol-6-yl)-3,5-dimethylisoxazole] | 24.4 nM |
| Cc1noc(C)c1-c1cc(NC2CCCC2)c2nc(C3CC3)[nH]c2c1 [Compound 1020-50, N-Cyclopentyl-2-cyclopropyl-6-(3,5-dimethylisoxazol-4-yl)-1H-benzo[d]imidazol-4-amine] | 353 nM |
| Cc1noc(C)c1-c1cc(S(=O)(=O)NC2CCCC2)c2nc(NCC(F)(F)F)[nH]c2c1 [Compound 1020-148, N-Cyclopentyl-6-(3,5-dimethylisoxazol-4-yl)-2-(2,2,2-trifluoroethylamino)-1H-benzo[d]imidazole-4-sulfonamide] | 495 nM |
| Cc1n[nH]c(C)c1-c1cc(-c2c(C)noc2C)cc2nc(C3CC3)n(C)c12 [Compound 1020-72, 4-(2-cyclopropyl-7-(3,5-dimethyl-1H-pyrazol-4-yl)-1-methyl-1H-benzo[d]imidazol-5-yl)-3,5-dimethylisoxazole] | 6.5 nM |
| Cc1ccnc(C)c1-c1cc(-c2c(C)noc2C)cc2nc(C3CC3)[nH]c12 [Compound 1020-57, 4-(2-Cyclopropyl-7-(2,4-dimethylpyridin-3-yl)-1H-benzo[d]imidazol-5-yl)-3,5-dimethylisoxazole] | 13.6 nM |
| Cc1n[nH]c(C)c1-c1cc(-c2c(C)noc2C)cc2[nH]c(NC3CC3)nc12 [Compound 1020-81, N-Cyclopropyl-4-(3,5-dimethyl-1H-pyrazol-4-yl)-6-(3,5-dimethylisoxazol-4-yl)-1H-benzo[d]imidazol-2-amine] | 7.6 nM |
| Cc1noc(C)c1-c1cc(C(C)c2ccc(F)cc2)c2[nH]c(C3CC3)nc2c1 (stereo not shown) [Compound 1020-44, 4-(2-Cyclopropyl-4-(1-(4-fluorophenyl)ethyl)-1H-benzo[d]imidazol-6-yl)-3,5-dimethylisoxazole] | 86.1 nM |
| Cc1ccc2ncccc2c1-c1cc(-c2c(C)noc2C)cc2[nH]c(-c3cnn(C)c3)nc12 [Compound 1020-88, 3,5-Dimethyl-4-(2-(1-methyl-1H-pyrazol-4-yl)-4-(6-methylquinolin-5-yl)-1H-benzo[d]imidazol-6-yl)isoxazole] | 45.2 nM |
| Cc1noc(C)c1-c1cc(S(=O)(=O)NC2CCCC2)c2nc(NCC3CC3)[nH]c2c1 [Compound 1020-1, N-Cyclopentyl-2-(cyclopropylmethylamino)-6-(3,5-dimethylisoxazol-4-yl)-1H-benzo[d]imidazole-4-sulfonamide] | 193 nM |
| Cc1noc(C)c1-c1cc(N2C(=O)CCC2C)c2nc(C3CC3)[nH]c2c1 (stereo not shown) [Compound 1020-136, 1-(2-Cyclopropyl-6-(3,5-dimethylisoxazol-4-yl)-1H-benzo[d]imidazol-4-yl)-5-methylpyrrolidin-2-one] | 335 nM |
| COc1nc2c(-c3c(C)ccc4ncccc34)cc(-c3c(C)noc3C)cc2[nH]1 [Compound 1020-90, 4-(2-methoxy-4-(6-methylquinolin-5-yl)-1H-benzo[d]imidazol-6-yl)-3,5-dimethylisoxazole] | 25 nM |
| Cc1n[nH]c(C)c1-c1cc(-c2c(C)noc2C)cc2[nH]c(NCC3CC3)nc12 [Compound 1020-79, N-(Cyclopropylmethyl)-4-(3,5-dimethyl-1H-pyrazol-4-yl)-6-(3,5-dimethylisoxazol-4-yl)-1H-benzo[d]imidazol-2-amine] | 33.8 nM |
| Cc1noc(C)c1-c1cc(S(=O)(=O)NC2CCCC2)c2nc(Cc3ccccc3)[nH]c2c1 [Compound 1020-141, 2-Benzyl-N-cyclopentyl-6-(3,5-dimethylisoxazol-4-yl)-1H-benzo[d]imidazole-4-sulfonamide] | 887 nM |
| Cc1ccc2ncccc2c1-c1cc(-c2c(C)noc2C)cc2[nH]c(C(F)(F)F)nc12 [Compound 1020-92, 3,5-Dimethyl-4-(4-(6-methylquinolin-5-yl)-2-(trifluoromethyl)-1H-benzo[d]imidazol-6-yl)isoxazole] | 73.1 nM |
| CCC1CCC(=O)N1c1cc(-c2c(C)noc2C)cc2[nH]c(C3CC3)nc12 (stereo not shown) [Compound 1020-137, 1-(2-Cyclopropyl-6-(3,5-dimethylisoxazol-4-yl)-1H-benzo[d]imidazol-4-yl)-5-ethylpyrrolidin-2-one] | 113 nM |
| CCC(CC)c1cc(-c2c(C)noc2C)cc2[nH]c(C3CC3)nc12 [Compound 1020-120, 4-(2-Cyclopropyl-4-(pentan-3-yl)-1H-benzo[d]imidazol-6-yl)-3,5-dimethylisoxazole] | 48.8 nM |
| Cc1noc(C)c1-c1cc(/C=C/c2ccccc2)c2[nH]c(C3CC3)nc2c1 [Compound 1020-37, (E)-4-(2-cyclopropyl-4-styryl-1H-benzo[d]imidazol-6-yl)-3,5-dimethylisoxazole] | 518 nM |
| Cc1nc2cc(-c3c(C)noc3C)cc(-c3c(C)n[nH]c3C)c2[nH]1 [Compound 1020-77, 4-(7-(3,5-Dimethyl-1H-pyrazol-4-yl)-2-methyl-1H-benzo[d]imidazol-5-yl)-3,5-dimethylisoxazole] | 39.4 nM |
| CCC(O)(CC)c1cc(-c2c(C)noc2C)cc2c1nc(C1CC1)n2C [Compound 1020-132, 3-(2-Cyclopropyl-6-(3,5-dimethylisoxazol-4-yl)-1-methyl-1H-benzo[d]imidazol-4-yl)pentan-3-ol] | 544 nM |
| Cc1n[nH]c(C)c1-c1cc(-c2c(C)noc2C)cc2[nH]c(C3CCC3)nc12 [Compound 1020-75, 4-(2-Cyclobutyl-4-(3,5-dimethyl-1H-pyrazol-4-yl)-1H-benzo[d]imidazol-6-yl)-3,5-dimethylisoxazole] | 18.4 nM |
| CC/C=C(\CC)c1cc(-c2c(C)noc2C)cc2nc(C3CC3)[nH]c12 [Compound 1020-28, (E)-4-(2-Cyclopropyl-4-(hex-3-en-3-yl)-1H-benzo[d]imidazol-6-yl)-3,5-dimethylisoxazole] | 51.6 nM |
| Cc1noc(C)c1-c1cc(C(O)(c2ccccc2)c2ccccc2)c2nc(C3CC3)[nH]c2c1 [Compound 1020-102, (2-Cyclopropyl-6-(3,5-dimethylisoxazol-4-yl)-1H-benzo[d]imidazol-4-yl)diphenylmethanol] | 49.7 nM |
| Cc1cnn(C)c1-c1cc(-c2c(C)noc2C)cc2nc(C3CC3)[nH]c12 [Compound 1020-12, 4-(2-Cyclopropyl-7-(1,4-dimethyl-1H-pyrazol-5-yl)-1H-benzo[d]imidazol-5-yl)-3,5-dimethylisoxazole] | 21.3 nM |
| Cc1n[nH]c(C)c1-c1cc(-c2c(C)noc2C)cc2nc(C3CC3(F)F)[nH]c12 (stereo not shown) [Compound 1020-78, 4-(2-(2,2-Difluorocyclopropyl)-7-(3,5-dimethyl-1H-pyrazol-4-yl)-1H-benzo[d]imidazol-5-yl)-3,5-dimethylisoxazole] | 25.7 nM |
| CSc1nc2c(S(=O)(=O)NC3CCCC3)cc(-c3c(C)noc3C)cc2[nH]1 [Compound 1020-4, N-Cyclopentyl-6-(3,5-dimethylisoxazol-4-yl)-2-(methylthio)-1H-benzo[d]imidazole-4-sulfonamide] | 192 nM |
| Cc1noc(C)c1-c1cc(C(O)C2CCCC2)c2nc(C3CC3)[nH]c2c1 (stereo not shown) [Compound 1020-121, Cyclopentyl(2-cyclopropyl-6-(3,5-dimethylisoxazol-4-yl)-1H-benzo[d]imidazol-4-yl)methanol] | 42.8 nM |
| Cc1ccnc(C)c1-c1cc(-c2c(C)noc2C)cc2[nH]cnc12 [Compound 1020-84, 4-(4-(2,4-Dimethylpyridin-3-yl)-1H-benzo[d]imidazol-6-yl)-3,5-dimethylisoxazole] | 236 nM |
| Cc1n[nH]c(C)c1-c1cc(-c2c(C)noc2C)cc2nc(N)[nH]c12 [Compound 1020-96, 4-(3,5-Dimethyl-1H-pyrazol-4-yl)-6-(3,5-dimethylisoxazol-4-yl)-1H-benzo[d]imidazol-2-amine] | 318 nM |
| Cc1ccc2ncccc2c1-c1cc(-c2c(C)noc2C)cc2nc(C3CC3)n(C)c12 [Compound 1020-74, 4-(2-Cyclopropyl-1-methyl-7-(6-methylquinolin-5-yl)-1H-benzo[d]imidazol-5-yl)-3,5-dimethylisoxazole] | 15.3 nM |
| Cc1ccc2ncccc2c1-c1cc(-c2c(C)noc2C)cc2[nH]c(C(O)CCO)nc12 (stereo not shown) [Compound 1020-89, 1-(6-(3,5-dimethylisoxazol-4-yl)-4-(6-methylquinolin-5-yl)-1H-benzo[d]imidazol-2-yl)propane-1,3-diol] | 104 nM |
